Reference: patent US10799605B2 (3B PHARMACEUTICALS GMBH, priority 2014, dated 2020)
Read-outs that look alike come from different tables or passages of the source.

Legend:
sst (non-selective) = test: ExpresSProfile: somatostatin receptor, agonist radioligand; assay type: binding; details: Test Concentration 1.0E−05 M
CB1 (h) = CB1 (h) (Homo sapiens (Human), UniProt P21554); test: ExpresSProfile: cannabinoid receptor 1, agonist radioligand; assay type: binding; details: Test Concentration 1.0E−05 M
Chain of CB1 (h) (P21554 whole entry): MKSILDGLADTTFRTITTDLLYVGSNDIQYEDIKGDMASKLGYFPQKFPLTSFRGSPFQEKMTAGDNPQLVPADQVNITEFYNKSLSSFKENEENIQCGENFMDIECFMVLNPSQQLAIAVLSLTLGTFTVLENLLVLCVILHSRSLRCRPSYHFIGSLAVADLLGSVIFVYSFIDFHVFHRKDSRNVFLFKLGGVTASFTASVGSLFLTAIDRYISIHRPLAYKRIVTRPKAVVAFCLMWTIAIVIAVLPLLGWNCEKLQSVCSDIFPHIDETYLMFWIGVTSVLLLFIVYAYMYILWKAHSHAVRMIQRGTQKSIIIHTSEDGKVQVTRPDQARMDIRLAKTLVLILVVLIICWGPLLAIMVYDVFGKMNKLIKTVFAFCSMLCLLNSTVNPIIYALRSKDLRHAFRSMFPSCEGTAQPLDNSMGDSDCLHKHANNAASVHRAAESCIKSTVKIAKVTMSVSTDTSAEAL

alpha 1 (non-selective) = test: ExpresSProfile: alpha1 adrenergic receptor, antagonist radioligand; assay type: binding; details: Test Concentration 1.0E−05 M
beta 2 (h) = beta 2 (h) (Homo sapiens (Human), UniProt P07550); test: ExpresSProfile: beta2 adrenergic receptor, agonist radioligand; assay type: binding; details: Test Concentration 1.0E−05 M
Chain of beta 2 (h) (P07550 whole entry): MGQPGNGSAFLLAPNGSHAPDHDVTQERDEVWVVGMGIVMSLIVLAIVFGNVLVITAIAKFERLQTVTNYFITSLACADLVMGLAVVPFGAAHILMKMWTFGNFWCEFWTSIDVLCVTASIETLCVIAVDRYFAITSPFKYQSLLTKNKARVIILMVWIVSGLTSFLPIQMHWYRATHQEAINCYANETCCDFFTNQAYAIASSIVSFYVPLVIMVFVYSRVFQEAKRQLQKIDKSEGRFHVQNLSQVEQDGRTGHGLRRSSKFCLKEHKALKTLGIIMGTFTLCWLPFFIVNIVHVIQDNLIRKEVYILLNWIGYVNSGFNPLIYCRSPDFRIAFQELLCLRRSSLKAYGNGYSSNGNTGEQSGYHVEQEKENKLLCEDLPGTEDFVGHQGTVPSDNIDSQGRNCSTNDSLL

M3 (h) = M3 (h) (Homo sapiens (Human), UniProt P20309); test: ExpresSProfile: muscarinic receptor 3, antagonist radioligand; assay type: binding; details: Test Concentration 1.0E−05 M
5-HT transporter (h) = 5-HT transporter (h) (Homo sapiens (Human), UniProt P31645); test: ExpresSProfile: 5-HT transporter, antagonist radioligand; assay type: binding; details: Test Concentration 1.0E−05 M
Chain of 5-HT transporter (h) (P31645 whole entry): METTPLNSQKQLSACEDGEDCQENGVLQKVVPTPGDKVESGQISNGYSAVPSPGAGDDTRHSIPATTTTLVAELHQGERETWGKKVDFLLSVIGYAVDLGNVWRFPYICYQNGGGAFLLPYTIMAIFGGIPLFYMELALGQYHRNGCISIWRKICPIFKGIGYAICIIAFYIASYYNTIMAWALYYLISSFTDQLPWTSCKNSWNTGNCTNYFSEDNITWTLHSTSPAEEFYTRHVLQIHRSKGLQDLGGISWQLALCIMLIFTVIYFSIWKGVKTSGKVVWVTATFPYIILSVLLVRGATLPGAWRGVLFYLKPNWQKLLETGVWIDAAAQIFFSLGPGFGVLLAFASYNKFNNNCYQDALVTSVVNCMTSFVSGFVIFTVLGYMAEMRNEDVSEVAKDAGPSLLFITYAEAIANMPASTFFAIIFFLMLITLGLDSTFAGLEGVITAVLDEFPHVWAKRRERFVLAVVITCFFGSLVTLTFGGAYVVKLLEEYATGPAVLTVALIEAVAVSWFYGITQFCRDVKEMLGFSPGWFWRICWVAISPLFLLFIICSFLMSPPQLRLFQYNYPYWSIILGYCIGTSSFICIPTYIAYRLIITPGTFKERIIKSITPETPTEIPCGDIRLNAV

[1] = test system: Ca2+ channel (L, verapamil site) (phenylalkylamine); test: ExpresSProfile: Ca2+ channel, antagonist radioligand; assay type: binding; details: Test Concentration 1.0E−05 M
VPAC1 (VIP1) (h) = VPAC1 (VIP1) (h) (Homo sapiens (Human), UniProt P32241); test: ExpresSProfile: vasoactive intestinal polypeptide receptor 1, agonist radioligand; assay type: binding; details: Test Concentration 1.0E−05 M
Chain of VPAC1 (VIP1) (h) (P32241 31-457): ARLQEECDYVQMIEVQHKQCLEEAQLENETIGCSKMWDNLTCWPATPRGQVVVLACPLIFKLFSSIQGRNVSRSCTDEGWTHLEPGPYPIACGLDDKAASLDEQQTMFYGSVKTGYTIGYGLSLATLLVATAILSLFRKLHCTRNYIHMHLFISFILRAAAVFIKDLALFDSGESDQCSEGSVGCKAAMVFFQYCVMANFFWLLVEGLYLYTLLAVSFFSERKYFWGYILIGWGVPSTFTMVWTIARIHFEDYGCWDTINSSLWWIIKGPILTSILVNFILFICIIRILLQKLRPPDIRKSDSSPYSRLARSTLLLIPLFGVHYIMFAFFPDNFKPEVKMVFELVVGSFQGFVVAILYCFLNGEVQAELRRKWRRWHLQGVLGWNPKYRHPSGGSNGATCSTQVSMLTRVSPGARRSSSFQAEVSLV

EP4 (h) = EP4 (h) (Homo sapiens (Human), UniProt P35408); test: ExpresSProfile: prostaglandin e receptor type 4, agonist radioligand; assay type: binding; details: Test Concentration 1.0E−05 M
Chain of EP4 (h) (P35408 whole entry): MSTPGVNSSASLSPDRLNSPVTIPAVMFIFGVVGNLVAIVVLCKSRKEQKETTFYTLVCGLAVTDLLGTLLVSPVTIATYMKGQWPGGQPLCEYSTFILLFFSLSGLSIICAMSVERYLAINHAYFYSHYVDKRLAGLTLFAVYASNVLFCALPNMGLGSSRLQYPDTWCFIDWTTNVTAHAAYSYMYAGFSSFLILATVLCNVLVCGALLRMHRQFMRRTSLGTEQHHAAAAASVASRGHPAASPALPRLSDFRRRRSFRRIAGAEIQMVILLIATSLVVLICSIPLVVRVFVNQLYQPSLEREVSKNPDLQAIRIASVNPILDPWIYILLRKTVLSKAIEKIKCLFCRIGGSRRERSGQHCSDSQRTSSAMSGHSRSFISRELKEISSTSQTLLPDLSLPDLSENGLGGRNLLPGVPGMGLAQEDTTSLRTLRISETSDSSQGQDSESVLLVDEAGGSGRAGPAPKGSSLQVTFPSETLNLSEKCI

5-HT2B (h) = 5-HT2B (h) (Homo sapiens (Human), UniProt P41595); test: ExpresSProfile: 5-hydroxytryptamine receptor 2B, agonist radioligand; assay type: binding; details: Test Concentration 1.0E−05 M
Chain of 5-HT2B (h) (P41595 whole entry): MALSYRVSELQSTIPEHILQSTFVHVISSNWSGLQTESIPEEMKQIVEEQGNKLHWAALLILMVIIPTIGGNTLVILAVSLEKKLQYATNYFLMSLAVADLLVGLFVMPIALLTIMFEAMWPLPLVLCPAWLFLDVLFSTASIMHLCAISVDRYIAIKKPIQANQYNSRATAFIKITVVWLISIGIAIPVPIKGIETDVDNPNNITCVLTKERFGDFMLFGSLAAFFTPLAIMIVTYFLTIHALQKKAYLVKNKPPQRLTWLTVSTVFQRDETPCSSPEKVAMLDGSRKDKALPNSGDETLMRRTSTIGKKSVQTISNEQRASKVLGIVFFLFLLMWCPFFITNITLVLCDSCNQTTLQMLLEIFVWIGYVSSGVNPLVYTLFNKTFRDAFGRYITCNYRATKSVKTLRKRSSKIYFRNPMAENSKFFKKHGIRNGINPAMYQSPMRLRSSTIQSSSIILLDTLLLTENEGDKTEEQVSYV

GABA (non-selective) = test: ExpresSProfile: GABA, agonist radioligand; assay type: binding; details: Test Concentration 1.0E−05 M
5-HT6 (h) = 5-HT6 (h) (Homo sapiens (Human), UniProt P50406); test: ExpresSProfile: 5-hydroxytryptamine receptor 6, agonist radioligand; assay type: binding; details: Test Concentration 1.0E−05 M
Chain of 5-HT6 (h) (P50406 whole entry): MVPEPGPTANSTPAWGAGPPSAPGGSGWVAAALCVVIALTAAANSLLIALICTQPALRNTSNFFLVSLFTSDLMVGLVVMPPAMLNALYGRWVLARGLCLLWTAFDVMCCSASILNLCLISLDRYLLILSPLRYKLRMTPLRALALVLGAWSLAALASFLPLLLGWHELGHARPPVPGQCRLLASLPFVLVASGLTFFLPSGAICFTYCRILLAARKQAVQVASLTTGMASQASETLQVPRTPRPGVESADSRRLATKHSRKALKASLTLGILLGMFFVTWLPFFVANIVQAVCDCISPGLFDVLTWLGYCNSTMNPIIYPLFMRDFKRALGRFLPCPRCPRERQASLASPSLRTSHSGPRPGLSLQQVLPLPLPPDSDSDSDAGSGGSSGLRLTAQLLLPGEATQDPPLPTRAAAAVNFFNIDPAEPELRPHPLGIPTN

A2A (h) = A2A (h) (Homo sapiens (Human), UniProt P29274); test: ExpresSProfile: adenosine receptor 2A, agonist radioligand; assay type: binding; details: Test Concentration 1.0E−05 M
Chain of A2A (h) (P29274 whole entry): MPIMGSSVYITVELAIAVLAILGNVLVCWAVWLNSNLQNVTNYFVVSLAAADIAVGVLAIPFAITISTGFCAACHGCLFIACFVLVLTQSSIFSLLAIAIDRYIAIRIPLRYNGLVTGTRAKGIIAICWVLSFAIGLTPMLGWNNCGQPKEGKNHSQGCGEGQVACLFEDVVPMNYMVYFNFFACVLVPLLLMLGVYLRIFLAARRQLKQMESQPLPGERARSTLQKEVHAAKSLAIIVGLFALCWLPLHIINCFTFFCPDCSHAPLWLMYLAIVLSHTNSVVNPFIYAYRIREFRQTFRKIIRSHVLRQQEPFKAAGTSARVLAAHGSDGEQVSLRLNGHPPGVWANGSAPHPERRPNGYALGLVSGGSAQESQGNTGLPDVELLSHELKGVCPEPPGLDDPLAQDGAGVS

CCK1 (CCKA) (h) = CCK1 (CCKA) (h) (Homo sapiens (Human), UniProt P32238); test: ExpresSProfile: cholecystokinin receptor 1, agonist radioligand; assay type: binding; details: Test Concentration 1.0E−05 M
Chain of CCK1 (CCKA) (h) (P32238 whole entry): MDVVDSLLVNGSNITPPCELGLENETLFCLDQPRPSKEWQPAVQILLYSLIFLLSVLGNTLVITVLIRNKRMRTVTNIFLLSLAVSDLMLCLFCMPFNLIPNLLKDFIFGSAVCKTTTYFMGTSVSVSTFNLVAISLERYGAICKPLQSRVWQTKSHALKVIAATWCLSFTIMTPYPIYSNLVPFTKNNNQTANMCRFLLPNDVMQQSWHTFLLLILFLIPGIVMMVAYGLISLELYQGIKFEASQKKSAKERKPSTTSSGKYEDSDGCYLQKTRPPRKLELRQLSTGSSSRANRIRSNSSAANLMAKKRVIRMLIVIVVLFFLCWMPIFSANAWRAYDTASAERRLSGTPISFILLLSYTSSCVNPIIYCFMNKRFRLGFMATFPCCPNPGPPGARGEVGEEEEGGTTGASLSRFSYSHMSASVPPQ

H1 (h) = H1 (h) (Homo sapiens (Human), UniProt P35367); test: ExpresSProfile: histamine receptor 1, antagonist radioligand; assay type: binding; details: Test Concentration 1.0E−05 M
NOP (ORL1) (h) = NOP (ORL1) (h) (Homo sapiens (Human), UniProt P41146); test: ExpresSProfile: nociception receptor, agonist radioligand; assay type: binding; details: Test Concentration 1.0E−05 M
Chain of NOP (ORL1) (h) (P41146 whole entry): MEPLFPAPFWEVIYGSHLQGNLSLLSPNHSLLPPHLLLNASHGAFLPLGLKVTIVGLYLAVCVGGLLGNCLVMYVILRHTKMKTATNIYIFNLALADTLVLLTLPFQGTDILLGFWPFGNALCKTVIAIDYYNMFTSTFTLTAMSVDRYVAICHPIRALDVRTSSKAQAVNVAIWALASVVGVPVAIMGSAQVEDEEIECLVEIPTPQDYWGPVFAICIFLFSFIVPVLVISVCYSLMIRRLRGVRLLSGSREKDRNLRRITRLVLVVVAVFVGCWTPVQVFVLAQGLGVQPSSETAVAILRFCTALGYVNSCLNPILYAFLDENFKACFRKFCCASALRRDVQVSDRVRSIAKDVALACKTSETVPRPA

[2] = test system: GPCRs, ion channels, and transporter proteins; test: Specificity screening (ExpresSProfile), whole panel; assay type: binding; details: 10^−5 M
Method: The specificity screening was carried out in order to test for unspecific binding of compounds of the present invention. The specificity for NTR1 was tested using a standard battery of assays (“ExpresSProfile”) comprising 55 assays on GPCRs, ion channels, and transporter proteins. This assay was performed by Cerep (Celle l'Evescault, France; Catalog reference P1).
Unspecific binding according to this specificity screening is observed if Inhibition of Control Specific Binding is above 50%.

[3] = Plasma protein binding assay, human; assay type: in vitro ADME; details: plasma proteins, 4 h at 37° C., equilibrium dialysis, read-out: % bound [human]
Excerpt: (§1) A drug's efficiency may be affected by the degree to which it binds to the proteins within blood plasma. A drug in blood exists in two forms: bound and unbound. Depending on a specific drug's affinity for plasma protein, a proportion of the drug may become bound to plasma proteins, with the remainder being unbound. […] It is also the fraction that may be metabolized and/or excreted. Protein binding can influence the drug's biological half-life in the body. The bound portion may act as a reservoir or depot from which the drug is slowly released as the unbound form. In order to determine the binding characteristics of the compounds of the present invention as listed in the following Table to human or mouse plasma protein, respectively, a plasma protein binding assay was carried out. All compounds have a plasma protein binding that is appropriate for diagnostic, therapeutic and theranostic use of these compounds according to the present invention.
(§2) The binding of test substances to human and murine plasma proteins was tested by Cerep (Celle l'Evescault, France; Catalog reference 2194 [human] and 2223 [mouse]) according to Banker et al., J. Pharm. Sci., 2003, 92, 967-974. Test compounds were incubated with human or murine plasma proteins for 4 h at 37° C. Subsequently, the fraction of compound bound to plasma proteins was determined by equilibrium dialysis and HPLC-MS/MS detection. […]

NK2 (h) = NK2 (h) (Homo sapiens (Human), UniProt P21452); test: ExpresSProfile: neurokinin receptor 2, agonist radioligand; assay type: binding; details: Test Concentration 1.0E−05 M
Chain of NK2 (h) (P21452 whole entry): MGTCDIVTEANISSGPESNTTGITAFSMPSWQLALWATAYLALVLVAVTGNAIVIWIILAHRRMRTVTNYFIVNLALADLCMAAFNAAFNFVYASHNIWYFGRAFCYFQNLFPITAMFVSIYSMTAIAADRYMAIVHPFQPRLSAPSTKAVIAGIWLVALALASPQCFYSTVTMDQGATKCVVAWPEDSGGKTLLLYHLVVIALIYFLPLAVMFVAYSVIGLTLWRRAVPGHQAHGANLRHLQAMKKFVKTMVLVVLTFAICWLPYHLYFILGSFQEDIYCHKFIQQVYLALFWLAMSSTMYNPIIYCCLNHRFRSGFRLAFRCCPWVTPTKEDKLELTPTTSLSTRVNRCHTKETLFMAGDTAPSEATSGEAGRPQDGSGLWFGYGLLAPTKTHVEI

[4] = Plasma protein binding assay, mouse; assay type: in vitro ADME; details: plasma proteins, 4 h at 37° C., equilibrium dialysis, read-out: % bound [mouse] (converted)
Excerpt: as §1, §2

[5] = read-out: % Inhibition of Control Specific Binding
[6] = read-out: % of Control Specific Binding 1st
[7] = read-out: % of Control Specific Binding 2nd
[8] = read-out: % of Control Specific Binding Mean

In the case of `COc1cccc(OC)c1-c1cc(C(=O)NC2(C(=O)O)C3CC4CC(C3)CC2C4)nn1-c1ccc(C(=O)N(C)CCCN(C)CCCN(C)C(=O)CN2CCN(CC(=O)O)CCN(CC(=O)O)CCN(CC(=O)O)CC2)cc1C(C)C` (stereo not drawn) [(IIIa), 2-{[1-{4-[(3-{[3-(DOTA-methyl-amino)-propyl]-methyl-amino}-propyl)-methyl-carbamoyl]-2-isopropyl-phenyl}-5-(2,6-dimethoxy-phenyl)-1H-pyrazole-3-carbonyl]-amino}-adamantane-2-carboxylic acid], the “% Inhibition of Control Specific Binding” value (sst (non-selective)) is reported as −11%, the “% of Control Specific Binding 1st” value (sst (non-selective)) is reported as 111.6% and the “% of Control Specific Binding 2nd” value (sst (non-selective)) is reported as 110.0%. The “% of Control Specific Binding Mean” value (sst (non-selective)) was 110.8%, the inhibition at 10 µM (CB1 (h); [5]) was 11% and the remaining activity at 10 µM (CB1 (h); [6]) was 96%. For the same molecule, the remaining activity at 10 µM (CB1 (h); [7]) was 82.5%, the remaining activity at 10 µM (CB1 (h); [8]) was 89.3% and the “% Inhibition of Control Specific Binding” value (alpha 1 (non-selective)) was −9%. For the same molecule, the “% of Control Specific Binding 1st” value (alpha 1 (non-selective)) was 106.2%, the “% of Control Specific Binding 2nd” value (alpha 1 (non-selective)) was 111.1% and the “% of Control Specific Binding Mean” value (alpha 1 (non-selective)) was 108.7%. The inhibition at 10 µM (beta 2 (h); [5]) was -2%, the remaining activity at 10 µM (beta 2 (h); [6]) was 107% and the remaining activity at 10 µM (beta 2 (h); [7]) was 96.5%. The remaining activity at 10 µM (beta 2 (h); [8]) was 102%, the inhibition at 10 µM (M3 (h); [5]) was -23% and the remaining activity at 10 µM (M3 (h); [6]) was 122%. It also gave a remaining activity at 10 µM (M3 (h); [7]) of 124%, a remaining activity at 10 µM (M3 (h); [8]) of 124% and an inhibition at 10 µM (5-HT transporter (h); [5]) of -13%. The remaining activity at 10 µM (5-HT transporter (h); [6]) was 103%, the remaining activity at 10 µM (5-HT transporter (h); [7]) was 123% and the remaining activity at 10 µM (5-HT transporter (h); [8]) was 113%. The “% Inhibition of Control Specific Binding” value [1] was 0%, the “% of Control Specific Binding 1st” value [1] was 96.1% and the “% of Control Specific Binding 2nd” value [1] was 103.7%. The “% of Control Specific Binding Mean” value [1] was 99.9%, the inhibition at 10 µM (VPAC1 (VIP1) (h); [5]) was -6% and the remaining activity at 10 µM (VPAC1 (VIP1) (h); [6]) was 104%. For the same molecule, the remaining activity at 10 µM (VPAC1 (VIP1) (h); [7]) was 107%, the remaining activity at 10 µM (VPAC1 (VIP1) (h); [8]) was 106% and the inhibition at 10 µM (EP4 (h); [5]) was 8%. The remaining activity at 10 µM (EP4 (h); [6]) was 89.2%, the remaining activity at 10 µM (EP4 (h); [7]) was 95.5% and the remaining activity at 10 µM (EP4 (h); [8]) was 92.3%. It also gave an inhibition at 10 µM (5-HT2B (h); [5]) of -22%, a remaining activity at 10 µM (5-HT2B (h); [6]) of 118% and a remaining activity at 10 µM (5-HT2B (h); [7]) of 125%. For the same molecule, the remaining activity at 10 µM (5-HT2B (h); [8]) was 122%, the “% Inhibition of Control Specific Binding” value (GABA (non-selective)) was −6% and the “% of Control Specific Binding 1st” value (GABA (non-selective)) was 101.9%. For the same molecule, the “% of Control Specific Binding 2nd” value (GABA (non-selective)) was 109.9%, the “% of Control Specific Binding Mean” value (GABA (non-selective)) was 105.9% and the inhibition at 10 µM (5-HT6 (h); [5]) was -6%. For the same molecule, the remaining activity at 10 µM (5-HT6 (h); [6]) was 106%, the remaining activity at 10 µM (5-HT6 (h); [7]) was 105% and the remaining activity at 10 µM (5-HT6 (h); [8]) was 106%. For the same molecule, the “% Inhibition of Control Specific Binding” value (A2A (h)) was 5%, the “% of Control Specific Binding 1st” value (A2A (h)) was 104.2% and the “% of Control Specific Binding 2nd” value (A2A (h)) was 85.6%. The “% of Control Specific Binding Mean” value (A2A (h)) was 94.9%, the inhibition at 10 µM (CCK1 (CCKA) (h); [5]) was -18% and the remaining activity at 10 µM (CCK1 (CCKA) (h); [6]) was 102%. It also gave a remaining activity at 10 µM (CCK1 (CCKA) (h); [7]) of 135%, a remaining activity at 10 µM (CCK1 (CCKA) (h); [8]) of 118% and an inhibition at 10 µM (H1 (h); [5]) of -12%. For the same molecule, the remaining activity at 10 µM (H1 (h); [6]) was 121%, the remaining activity at 10 µM (H1 (h); [7]) was 103% and the remaining activity at 10 µM (H1 (h); [8]) was 112%. For the same molecule, the inhibition at 10 µM (NOP (ORL1) (h); [5]) was -7%, the remaining activity at 10 µM (NOP (ORL1) (h); [6]) was 104% and the remaining activity at 10 µM (NOP (ORL1) (h); [7]) was 109%. The remaining activity at 10 µM (NOP (ORL1) (h); [8]) was 107%, the specificity [2] was “highly specific” and the fraction unbound at 4 h [3] was 0.01. The “% Inhibition of Control Specific Binding” value (NK2 (h)) was 66%, the inhibition at 10 µM (NK2 (h); [5]) was 66% and the remaining activity at 10 µM (NK2 (h); [6]) was 34.5%. For the same molecule, the remaining activity at 10 µM (NK2 (h); [7]) was 33.7%, the remaining activity at 10 µM (NK2 (h); [8]) was 34.1% and the fraction unbound at 4 h [4] was 0.11.
